Measured values from patent US8232253B2, “Treatment of lung cancer” (Ramot at Tel-Aviv University Ltd., priority 2006, dated 2012).

Legend:
A549 cells [1] = experiment: Drug combination experiments, live cell counting; format: cell-based, human; conditions: 4 h
Procedure: In drug combination experiments, cells were grown for 2 days in the absence or in the presence of 40 μM FTS and were then treated for 4 h with gemcitabine (100 or 200 nM), cisplatin (50 or 100 nM), doxorubicin (50 or 100 nM), or paclitaxel (2.5 or 5 nM). Live cells were counted after a further 3 days of incubation with or without FTS. Experiments were performed twice in quadruplicate. To determine whether A549 cells were resistant to apoptosis, an experiment to examine the survival of human lung cancer A549 cells after exposure to a chemotherapeutic agent in the presence of FTS was performed. Thus, to determine whether treatment with FTS can increase the sensitivity of A549 cells to cytotoxic drugs, A549 cells were incubated for 48 h with DMSO (control) or with 40 μM FTS, then for 4 h with gemcitabine, cisplatin, doxorubicin, or paclitaxel at the indicated concentrations. The cells were then washed and incubated for a further 72 h with DMSO or with 40 μM FTS. Live cells were collected and counted. The numbers of cells in the drug-treated cultures, expressed as percentages of the numbers in the vehicle-treated control, are shown in FIGS. 13A-13D. Values are means±SD. *P<0.05, **P<0.01, compared to vehicle-treated control.

A549 cells [2] = experiment: A549-cell-implanted nude mouse model, tumor growth; format: in vivo, nude mice; conditions: gemcitabine alone 36 mg/kg i.p. every 4 days (FIG. 14D)
Procedure: Nude mice (6 weeks old) were housed in barrier facilities on a 12-h light/dark cycle. Food and water were supplied ad libitum. On day zero, A549 or HTB-58 cells (5×10^6 cells in 0.1 ml PBS) were implanted subcutaneously (s.c.) just above the right femoral joint. After 5 or 11 days the mice were separated randomly into control groups that had received only the vehicle and FTS-treated groups. Daily FTS treatments were administered either intraperitoneally (i.p.) or orally. Tumor volumes or weights were determined as described in Barkan, B., Starinsky, S., Friedman, E., Stein, R., Kloog, Y., Clin Cancer Res 12:5533-42 (2006). Gemcitabine treatment (36 mg/kg, i.p.) was administered every 4 days.
To determine whether FTS inhibited tumor growth in vivo, experiments were conducted using a nude mouse model. The lung cancer cells were implanted s.c. above the right femoral joint and the mice were then treated with FTS. In a first experiment, the effect of i.p. administration of FTS on tumor growth in A549 cells was assessed. Treatment was started 5 days after cell implantation, by which time the tumors were palpable. Tumor volumes were determined 24 days after implantation in two groups of mice (n=8) that had received daily i.p. administration of either the vehicle (control) or 10 mg/kg FTS.
In an additional set of experiments, the A549-cell-implanted nude mouse model was used to examine the effect of orally administered FTS on tumor growth. First, cells were implanted as described above and daily oral treatment with FTS (50 mg/kg; n=6) or vehicle (n=5) was started either 11 days (FIG. 14C) or 6 days (FIG. 14D) after implantation. […] Next, the effects of orally administered FTS, alone or in combination with gemcitabine, on A549-cell tumor growth was examined (FIG. 14D). Six days after cell implantation, mice were divided into four groups (n=8 per group) and treated orally with vehicle alone (control), FTS alone (60 mg/kg), vehicle and gemcitabine (36 mg/kg, i.p. every 4 days), or FTS and gemcitabine. Treatments with gemcitabine began 1 week after FTS treatment was started.

SMILES | reduction in cell numbers (A549 cells [1]; cisplatin alone 50 nM) [%] | reduction in cell numbers (A549 cells [1]; cisplatin alone 100 nM) [%] | reduction in cell numbers (A549 cells [1]; gemcitabine alone 100 nM) [%] | reduction in cell numbers (A549 cells [1]; gemcitabine alone 200 nM) [%] | effect on tumor weight (A549 cells [2])
N.N.[Cl][Pt][Cl] [cisplatin, cis-diamminedichloroplatinum(II)] | 11±11 | 30±12.9 |  |  | 
Cl.Nc1ccn([C@@H]2O[C@H](CO)[C@@H](O)C2(F)F)c(=O)n1 [gemcitabine, 2′-deoxy-2′,2′-difluorocytidine monohydrochloride] |  |  | < 11 | < 11 | significant reduction in tumor weight
